What was measured:
[1] = target: purified human autoBACE-2 (Homo sapiens (Human), UniProt Q9Y5Z0); experiment: BACE-2 Assay (BACE-HTRF assay); type: biochemical; conditions: Ki calculated from IC50 using the Cheng-Prusoff equation; QSY7-EISEVNLDAEFC-Eu-amide substrate, pH 5.0; read-out: BACE2 Ki
Procedure: Inhibitor IC50s at purified human autoBACE-2 are determined in a time-resolved endpoint proteolysis assay that measures hydrolysis of the QSY7-EISEVNLDAEFC-Eu-amide FRET peptide substrate (BACE-HTRF assay). BACE-mediated hydrolysis of this peptide results in an increase in relative fluorescence (RFU) at 620 nm after excitation with 320 nm light. Inhibitor compounds, prepared at 3× the desired final concentration in 1×BACE assay buffer (20 mM sodium acetate pH 5.0, 10% glycerol, 0.1% Brij-35) supplemented with 7.5% DMSO are pre-incubated with an equal volume of autoBACE-2 enzyme diluted in 1×BACE assay buffer (final enzyme concentration 1 nM) in black 384-well NUNC plates for 30 minutes at 30° C. The assay is initiated by addition of an equal volume of the QSY7-EISEVNLDAEFC-Eu-amide substrate (200 nM final concentration, Km=8 μM […] for autoBACE-2) prepared in 1×BACE assay buffer supplemented with 7.5% DMSO and incubated for 90 minutes at 30° C. DMSO is present at 5% final concentration in the assay. Following laser excitation of sample wells at 320 nm, the fluorescence signal at 620 nm is collected for 400 ms following a 50 μs delay on a RUBYstar HTRF plate reader (BMG Labtechnologies). Raw RFU data is normalized to maximum (1.0 nM BACE/DMSO) and minimum (no enzyme/DMSO) RFU values. IC50s are determined by nonlinear regression analysis (sigmoidal dose response, variable slope) of percent inhibition data with minimum and maximum values set to 0 and 100 percent respectively. Similar IC50s are obtained when using raw RFU data. The Ki values are calculated from the IC50 using the Cheng-Prusoff equation.

[2] = target: soluble human BACE1 catalytic domain (Homo sapiens (Human), UniProt P56817); experiment: BACE1 HTRF FRET Assay; type: biochemical; conditions: Ki calculated from IC50 using the Cheng-Prusoff equation; QSY7-APPswe-Eu substrate, pH 5.0
soluble human BACE1 catalytic domain, sequence (P56817 75-416): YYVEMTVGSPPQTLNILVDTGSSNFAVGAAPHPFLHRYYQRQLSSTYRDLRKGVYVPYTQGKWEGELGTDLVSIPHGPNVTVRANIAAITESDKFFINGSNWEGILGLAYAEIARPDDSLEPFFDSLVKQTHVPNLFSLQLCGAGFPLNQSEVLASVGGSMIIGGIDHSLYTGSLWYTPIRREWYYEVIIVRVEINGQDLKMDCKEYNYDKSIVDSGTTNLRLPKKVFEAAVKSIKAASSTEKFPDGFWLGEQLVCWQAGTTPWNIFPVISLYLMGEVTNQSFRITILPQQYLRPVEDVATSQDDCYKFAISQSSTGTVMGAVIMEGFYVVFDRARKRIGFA
Excerpt: Na^+-Acetate pH 5.0; 1% Brij-35; Glycerol; Dimethyl Sulfoxide (DMSO); Recombinant human soluble BACE1 catalytic domain (>95% pure); APP Swedish mutant peptide substrate (QSY7-APP^swe-Eu): QSY7-[…]-Europium-amide.
A homogeneous time-resolved FRET assay can be used to determine IC50 values for inhibitors of the soluble human BACE1 catalytic domain. This assay monitors the increase of 620 nm fluorescence that resulted from BACE1 cleavage of an APPswedish APP^swe mutant peptide FRET substrate (QSY7-[…]-Europium-amide). This substrate contains an N-terminal QSY7 moiety that serves as a quencher of the C-terminal Europium fluorophore (620 nm Em). In the absence of enzyme activity, 620 nm fluorescence is low in the assay and increased linearly over 3 hours in the presence of uninhibited BACE1 enzyme Inhibition of BACE1 cleavage of the QSY7-APP^swe-Eu substrate by inhibitors is manifested as a suppression of 620 nm fluorescence.
Varying concentrations of inhibitors at 3× the final desired concentration in a volume of 10 ul are preincubated with purified human BACE1 catalytic domain (3 nM in 10 μl) for 30 minutes at 30° C. in reaction buffer containing 20 mM Na-Acetate pH 5.0, 10% glycerol, 0.1% Brij-35 and 7.5% DSMO. Reactions are initiated by addition of 10 μl of 600 nM QSY7-APP^swe-Eu substrate (200 nM final) to give a final reaction volume of 30 μl in a 384 well Nunc HTRF plate. The reactions are incubated at 30° C. for 1.5 hours. The 620 nm fluorescence is then read on a Rubystar HTRF plate reader (BMG Labtechnologies) using a 50 millisecond delay followed by a 400 millisecond acquisition time window. Inhibitor IC50 values are derived from non-linear regression analysis of concentration response curves. Ki values are then calculated from IC50 values using the Cheng-Prusoff equation using a previously determined […] of 8 μM for the QSY7-APP^swe-Eu substrate at BACE1.

purified human autoBACE-2, sequence (Q9Y5Z0 63-473 limits assumed): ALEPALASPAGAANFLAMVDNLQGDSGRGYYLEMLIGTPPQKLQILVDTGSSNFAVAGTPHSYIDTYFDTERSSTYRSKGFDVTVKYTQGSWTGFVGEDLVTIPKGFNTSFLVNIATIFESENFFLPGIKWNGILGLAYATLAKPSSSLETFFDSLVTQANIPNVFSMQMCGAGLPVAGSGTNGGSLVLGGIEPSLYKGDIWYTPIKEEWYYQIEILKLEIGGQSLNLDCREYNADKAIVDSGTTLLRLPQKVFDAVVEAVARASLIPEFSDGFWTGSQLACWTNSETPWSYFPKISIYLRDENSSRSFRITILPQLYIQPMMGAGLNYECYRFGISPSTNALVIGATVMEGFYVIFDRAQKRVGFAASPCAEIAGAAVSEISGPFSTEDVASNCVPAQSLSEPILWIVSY

Row | Compound | Ki [1] [nM] | Ki [2] [nM]
1 | COc1ccc(C(=O)Nc2ccc(F)c([C@@]3(C)NC(=N)N(C)S(=O)(=O)C34CC4)c2)nc1 [Example 1a, N-{4-fluoro-3-[(8R)-6-imino-5,8-dimethyl-4,4-dioxido-4-thia-5,7-diazaspiro[2.5]oct-8-yl]phenyl}-5-methoxypyridine-2-carboxamide] | 17 | 18
2 | CN1C(=N)N[C@](C)(c2cc(NC(=O)c3cn(C)nc3C(F)(F)F)ccc2F)C2(CC2)S1(=O)=O [Example 1b, N-{4-fluoro-3-[(8R)-6-imino-5,8-dimethyl-4,4-dioxido-4-thia-5,7-diazaspiro[2.5]oct-8-yl]phenyl}-1-methyl-3-(trifluoromethyl)-1H-pyrazole-4-carboxamide] | 3250 | 4940
3 | C#CCOc1ccc(C(=O)Nc2ccc(F)c([C@@]3(C)NC(=N)N(C)S(=O)(=O)C34CC4)c2)nc1 [Example 1c, N-{4-fluoro-3-[(8R)-6-imino-5,8-dimethyl-4,4-dioxido-4-thia-5,7-diazaspiro[2.5]oct-8-yl]phenyl}-5-(prop-2-yn-1-yloxy)pyridine-2-carboxamide] | 95 | 6
4 | CN1C(=N)N[C@](C)(c2cc(NC(=O)c3cnsn3)ccc2F)C2(CC2)S1(=O)=O [Example 1d, N-{4-fluoro-3-[(8R)-6-imino-5,8-dimethyl-4,4-dioxido-4-thia-5,7-diazaspiro[2.5]oct-8-yl]phenyl}-1,2,5-thiadiazole-3-carboxamide] | 15 | 25
5 | COc1cnc(C(=O)Nc2ccc(F)c([C@@]3(C)NC(=N)N(C)S(=O)(=O)C34CC4)c2)cn1 [Example 1e] | 56 | 20
6 | CN1C(=N)N[C@](C)(c2cc(NC(=O)c3ccc(C(F)(F)F)cn3)ccc2F)C2(CC2)S1(=O)=O [Example 1f, N-{4-fluoro-3-[(8R)-6-imino-5,8-dimethyl-4,4-dioxido-4-thia-5,7-diazaspiro[2.5]oct-8-yl]phenyl}-5-(trifluoromethyl)pyridine-2-carboxamide] | 55 | 8
7 | CN1C(=N)N[C@](C)(c2cc(NC(=O)c3ccc(C#N)cn3)ccc2F)C2(CC2)S1(=O)=O [Example 1g, 5-cyano-N-{4-fluoro-3-[(8R)-6-imino-5,8-dimethyl-4,4-dioxido-4-thia-5,7-diazaspiro[2.5]oct-8-yl]phenyl}pyridine-2-carboxamide] | 17 | 3
8 | Cc1nc(C(=O)Nc2ccc(F)c([C@@]3(C)NC(=N)N(C)S(=O)(=O)C34CC4)c2)no1 [Example 1h, N-{4-fluoro-3-[(8R)-6-imino-5,8-dimethyl-4,4-dioxido-4-thia-5,7-diazaspiro[2.5]oct-8-yl]phenyl}-5-methyl-1,2,4-oxadiazole-3-carboxamide] | 8 | 31
9 | CN1C(=N)N[C@](C)(c2cc(NC(=O)c3ncc(C(F)(F)F)cn3)ccc2F)C2(CC2)S1(=O)=O [Example 1i, N-{4-fluoro-3-[(8R)-6-imino-5,8-dimethyl-4,4-dioxido-4-thia-5,7-diazaspiro[2.5]oct-8-yl]phenyl}-5-(trifluoromethyl)pyrimidine-2-carboxamide] | 106 | 47
10 | COc1cnc(C(=O)Nc2ccc(F)c([C@@]3(C)NC(=N)N(C)S(=O)(=O)C34CC4)c2)c(C)c1 [Example 1j] | 10 | 22
11 | Cc1cc(C#N)cnc1C(=O)Nc1ccc(F)c([C@@]2(C)NC(=N)N(C)S(=O)(=O)C23CC3)c1 [Example 1k, 5-cyano-N-{4-fluoro-3-[(8R)-6-imino-5,8-dimethyl-4,4-dioxido-4-thia-5,7-diazaspiro[2.5]oct-8-yl]phenyl}-3-methylpyridine-2-carboxamide] | 5 | 2
12 | CN1C(=N)N[C@](C)(c2cc(NC(=O)c3ccn(C(F)F)n3)ccc2F)C2(CC2)S1(=O)=O [Example 1l, 1-(difluoromethyl)-N-{4-fluoro-3-[(8R)-6-imino-5,8-dimethyl-4,4-dioxido-4-thia-5,7-diazaspiro[2.5]oct-8-yl]phenyl}-1H-pyrazole-3-carboxamide] | 2 | 5
13 | CN1C(=N)N[C@](C)(c2cc(NC(=O)c3cn4ccc(C#N)cc4n3)ccc2F)C2(CC2)S1(=O)=O [Example 1m, 7-cyano-N-{4-fluoro-3-[(8R)-6-imino-5,8-dimethyl-4,4-dioxido-4-thia-5,7-diazaspiro[2.5]oct-8-yl]phenyl}imidazo[1,2-a]pyridine-2-carboxamide] | 1640 | 5500
14 | Cc1cc(C(=O)Nc2ccc(F)c([C@@]3(C)NC(=N)N(C)S(=O)(=O)C34CC4)c2)no1 [Example 1n, N-{4-fluoro-3-[(8R)-6-imino-5,8-dimethyl-4,4-dioxido-4-thia-5,7-diazaspiro[2.5]oct-8-yl]phenyl}-5-methylisoxazole-3-carboxamide] | 220 | 620
15 | CN1C(=N)N[C@](C)(c2cc(NC(=O)c3ncc(Cl)cc3F)ccc2F)C2(CC2)S1(=O)=O [Example 1o, 5-chloro-3-fluoro-N-{4-fluoro-3-[(8R)-6-imino-5,8-dimethyl-4,4-dioxido-4-thia-5,7-diazaspiro[2.5]oct-8-yl]phenyl}pyridine-2-carboxamide] | 3 | 6
16 | CN1C(=N)N[C@](C)(c2cc(NC(=O)c3cnc(C(F)(F)F)cn3)ccc2F)C2(CC2)S1(=O)=O [Example 1p, 5-N-{4-fluoro-3-[(8R)-6-imino-5,8-dimethyl-4,4-dioxido-4-thia-5,7-diazaspiro[2.5]oct-8-yl]phenyl}-5-(trifluoromethyl)pyrazine-2-carboxamide] | 346 | 58
17 | COc1cnc(C(=O)Nc2ccc(F)c([C@@]3(C)NC(=N)N(C)S(=O)(=O)C34CC4)c2)c(C)n1 [Example 1q, N-{4-fluoro-3-[(8R)-6-imino-5,8-dimethyl-4,4-dioxido-4-thia-5,7-diazaspiro[2.5]oct-8-yl]phenyl}-5-methoxy-3-methylpyrazine-2-carboxamide] | 41 | 38
18 | CN1C(=N)N[C@](C)(c2cc(NC(=O)c3ccc(F)cn3)ccc2F)C2(CC2)S1(=O)=O [Example 1r, 5-fluoro-N-{4-fluoro-3-[(8R)-6-imino-5,8-dimethyl-4,4-dioxido-4-thia-5,7-diazaspiro[2.5]oct-8-yl]phenyl}pyridine-2-carboxamide] | 8 | 16
19 | CN1C(=N)N[C@](C)(c2cc(NC(=O)c3ccc(OC(F)F)cn3)ccc2F)C2(CC2)S1(=O)=O [Example 1s, 5-(difluoromethoxy)-N-{4-fluoro-3-[(8R)-6-imino-5,8-dimethyl-4,4-dioxido-4-thia-5,7-diazaspiro[2.5]oct-8-yl]phenyl}pyridine-2-carboxamide] | 46 | 8
20 | CN1C(=N)N[C@](C)(c2cc(NC(=O)c3cnc(OCCF)cn3)ccc2F)C2(CC2)S1(=O)=O [Example 1t, 5-(2-fluoroethoxy)-N-{4-fluoro-3-[(8R)-6-imino-5,8-dimethyl-4,4-dioxido-4-thia-5,7-diazaspiro[2.5]oct-8-yl]phenyl}pyrazine-2-carboxamide] | 285 | 42
21 | Cc1nc(C(=O)Nc2ccc(F)c([C@@]3(C)NC(=N)N(C)S(=O)(=O)C34CC4)c2)c(C)o1 [Example 1u, N-{4-fluoro-3-[(8R)-6-imino-5,8-dimethyl-4,4-dioxido-4-thia-5,7-diazaspiro[2.5]oct-8-yl]phenyl}-2,5-dimethyl-1,3-oxazole-4-carboxamide] | 8 | 25

Reference: patent US9802928B2 (Merck Sharp & Dohme Corp., priority 2013, dated 2017)
